Assay results reported in US20160058738A1, “PHARMACEUTICAL COMPOSITION FOR PREVENTING OR TREATING OVARY GRANULOSA CELL TUMORS CONTAINING GLYCOGEN SYNTHASE KINASE-3 BETA INHIBITOR AS ACTIVE INGREDIENT, AND FUNCTIONAL HEALTH FOOD COMPOSITION” (CHUNG-ANG UNIVERSITY INDUSTRY-ACADEMIC COOPERATION …, priority 2013, published 2016).

Key:
[1] = tested on: FOXL2 protein; assay: Experiment for protein stability (cyclohexamide chase, western blotting); type: cell-based, human; details: FOXL2-overexpressing cells, then 10 μg cyclohexamide, sampled at 0, 6, 12, 24 hours
Description: The cultured cells were harvested, and a protein was extracted from the cells using a Nonidet P-40 (NP-40) solution. For quantification of the extracted protein, a Bicinchoninic acid (BCA)™ protein assay was performed. The quantified protein was transferred to a polyvinylidene fluoride (PVDF) membrane by SDS-PAGE electrophoresis, and incubated with an antibody for each protein to be detected. Afterward, the proteins were detected using secondary antibodies and a ChemDoc system. To confirm whether the effect of decreasing the cell viability by inducing the activity of a specific promoter such as TNFR1, FAS, Caspase8 and p21 induces regulation of FOXL2 protein stability by the phosphorylation of the FOXL2 S33 residue, cells in which a FOXL2 protein was overexpressed were treated with a GSK3beta inhibitor (SB 216763) and expressed, treated with 10 μg of cyclohexamide which is a protein synthesis inhibitor, and then sampled at 0, 6, 12, and 24 hours to perform western blotting, and the result is shown in FIG. 12.

[2] = tested on: KGN cells stably expressing FOXL2; assay: Efficacy on tumor induced by KGN cells in nude mice; type: in vivo, BALB/c-nu mice; details: 2 mg/kg injected directly into tumor-induced region 10 times for two weeks, starting three weeks after cell injection
Excerpt: 6-week-old mature male BALB/c-nu mice were purchased from Central Laboratory Animal, Inc., and allowed for one week to be adapted to environments of the breeding facility and the laboratory in the Chung-Ang University Laboratory Animal Research Center to ensure that the mice had no general symptoms, prior to being used for the experiment. The animals were housed at a density of five mice per polycarbonate cage, and solid food for laboratory animals and water were freely provided. The environments for the breeding laboratory including a temperature, humidity, a ventilation cycle, a light/dark cycle, and illuminance were constantly maintained, and all the experiments were conducted in accordance with the regulation of the Chung-Ang University Animal Research Ethics Committee.
3×10^7 of KGN cells stably expressing FOXL2 were subcutaneously injected into each mouse to induce a tumor. Three weeks after the injection, the GSK3beta inhibitor (AR-A014418) was directly injected into a tumor-induced region at 2 mg/kg 10 times for two weeks and then a tumor size was measured, and the result is shown in FIG. 14.

[3] = tested on: cells in which the FOXL2 protein was overexpressed; assay: Experiment for cell growth rate; type: cell-based, human; details: for cell growth rate of the C134W mutant: cells overexpressing FOXL2 C134W mutant
Description: After the cells in which the FOXL2 protein was overexpressed were treated with a GSK3beta inhibitor (AR-A014418), a cell growth rate according to time was measured, and the result is shown in FIG. 13.

[4] = tested on: phosphorylation of the FOXL2 S33 residue; assay: Western blotting of the phosphorylation of the FOXL2 S33 residue after kinase inhibitor treatment; type: cell-based, human; details: 10 μM inhibitor, KGN cells overexpressing FOXL2 WT
Description: The cultured cells were harvested, and a protein was extracted from the cells using a Nonidet P-40 (NP-40) solution. For quantification of the extracted protein, a Bicinchoninic acid (BCA)™ protein assay was performed. The quantified protein was transferred to a polyvinylidene fluoride (PVDF) membrane by SDS-PAGE electrophoresis, and incubated with an antibody for each protein to be detected. Afterward, the proteins were detected using secondary antibodies and a ChemDoc system.
While the FOXL2 WT was overexpressed in the KGN cells, the cells were treated with 10 μM of the inhibitor of each kinase, cultured for 18 hours and sampled, and then a change in phosphorylation was measured by performing western blotting. Here, the change in phosphorylation was measured using an antibody specifically binding to a peptide consisting of an amino acid of SEQ. ID.
To confirm whether an inhibitory effect of GSK3beta on the FOXL2 S33 residue is a GSK3beta-specific effect, cells in which FOXL2 WT was overexpressed were treated with 10 μM each of AR-A014418 and TWS1119, which are two different GSK3beta inhibitors, sampled, and analyzed by western blotting. Here, AR-A014418 contains a compound represented by Formula 2.

SMILES | FOXL2 protein stability [1] | size of the tumor induced in the ovarian GCT cells [2] | cell growth rate of the C134W mutant [3] | phosphorylation of the FOXL2 S33 residue [4] | phosphorylation of the FOXL2 S33 residue ([4]; listed as Formula 1) | size of the tumor induced in the ovarian GCT cells ([2]; listed as Formula 2) | cell growth rate ([3]; FOXL2-overexpressing cells, growth rate according to time) | cell growth rate of the C134W mutant ([3]; listed as Formula 2) | phosphorylation of the FOXL2 S33 residue ([4]; listed as Formula 2)
Cn1cc(C2=C(c3ccc(Cl)cc3Cl)C(=O)NC2=O)c2ccccc21 [SB 216763, 3-(2,4-Dichlorophenyl)-4-(1-methyl-1H-indol-3-yl)-1H-pyrrole-2,5-dione] | increased | decreased | decreased | reduced | decreased |  |  |  | 
Nc1cccc(-c2cc3c(Oc4cccc(O)c4)ncnc3[nH]2)c1 [TWS1119] |  |  |  | reduced |  |  |  |  | 
COc1ccc(CNC(=O)Nc2ncc([N+](=O)[O-])s2)cc1 [AR-A014418, N-[(4-Methoxyphenyl)Methyl]-N′-(5-nitro-thiazol-2-yl)urea] |  | remarkably decreased | remarkably decreased | reduced |  | decreased | decrease | decreased | decreased
